The source of these data is PMC7486443, “Generation of Phenothiazine with Potent Anti-TLK1 Activity for Prostate Cancer Therapy” (iScience, 2020).

Some targets named below: STK36 (Homo sapiens, UniProt Q9NRP7); PKNB(M.tuberculosis) (Mycobacterium tuberculosis, UniProt P9WI81); PIK3CG (Homo sapiens, UniProt P48736); CSNK1A1L (Homo sapiens, UniProt Q8N752); CAMK1G (Homo sapiens, UniProt Q96NX5); MAP4K2 (Homo sapiens, UniProt Q12851); CDK4 (Homo sapiens, UniProt P11802); STK16 (Homo sapiens, UniProt O75716); TAOK1 (Homo sapiens, UniProt Q7L7X3); CDK8 (Homo sapiens, UniProt P49336); CLK3 (Homo sapiens, UniProt P49761); NEK1 (Homo sapiens, UniProt Q96PY6); WNK4 (Homo sapiens, UniProt Q96J92); CDKL1 (Homo sapiens, UniProt Q00532).

Common to all, as to experiment: biochemical
Set-up in all cases: DiscoverX KINOMEscan scanMAX competition binding panel, single concentration, percent of control; remaining binding: dose or concentration left out as unconfirmed
Settings in all cases: KINOMEscan binding, percent of control; read-out: Table S4_SCANMAX REPORT - related to Fig. 1 / Percent Control

A further assay concerns the target T1, NDR2 (Homo sapiens, UniProt Q9Y2H1).
T1 construct: gene STK38L

In the next assay the target is T2, NDR1 (Homo sapiens, UniProt Q15208).
T2 construct: gene STK38

For a further assay, the target named is T3, CDK11 (Homo sapiens, UniProt Q9BWU1).
T3 construct: gene CDK19

Assay [1] concerns the target T4, TYK2(JH1domain-catalytic) (Homo sapiens, UniProt P29597).
T4 construct: JH1domain-catalytic

A further assay has as its target T5, MLK3 (Homo sapiens, UniProt Q16584).
T5 construct: gene MAP3K11

T4 sequence (P29597 whole entry): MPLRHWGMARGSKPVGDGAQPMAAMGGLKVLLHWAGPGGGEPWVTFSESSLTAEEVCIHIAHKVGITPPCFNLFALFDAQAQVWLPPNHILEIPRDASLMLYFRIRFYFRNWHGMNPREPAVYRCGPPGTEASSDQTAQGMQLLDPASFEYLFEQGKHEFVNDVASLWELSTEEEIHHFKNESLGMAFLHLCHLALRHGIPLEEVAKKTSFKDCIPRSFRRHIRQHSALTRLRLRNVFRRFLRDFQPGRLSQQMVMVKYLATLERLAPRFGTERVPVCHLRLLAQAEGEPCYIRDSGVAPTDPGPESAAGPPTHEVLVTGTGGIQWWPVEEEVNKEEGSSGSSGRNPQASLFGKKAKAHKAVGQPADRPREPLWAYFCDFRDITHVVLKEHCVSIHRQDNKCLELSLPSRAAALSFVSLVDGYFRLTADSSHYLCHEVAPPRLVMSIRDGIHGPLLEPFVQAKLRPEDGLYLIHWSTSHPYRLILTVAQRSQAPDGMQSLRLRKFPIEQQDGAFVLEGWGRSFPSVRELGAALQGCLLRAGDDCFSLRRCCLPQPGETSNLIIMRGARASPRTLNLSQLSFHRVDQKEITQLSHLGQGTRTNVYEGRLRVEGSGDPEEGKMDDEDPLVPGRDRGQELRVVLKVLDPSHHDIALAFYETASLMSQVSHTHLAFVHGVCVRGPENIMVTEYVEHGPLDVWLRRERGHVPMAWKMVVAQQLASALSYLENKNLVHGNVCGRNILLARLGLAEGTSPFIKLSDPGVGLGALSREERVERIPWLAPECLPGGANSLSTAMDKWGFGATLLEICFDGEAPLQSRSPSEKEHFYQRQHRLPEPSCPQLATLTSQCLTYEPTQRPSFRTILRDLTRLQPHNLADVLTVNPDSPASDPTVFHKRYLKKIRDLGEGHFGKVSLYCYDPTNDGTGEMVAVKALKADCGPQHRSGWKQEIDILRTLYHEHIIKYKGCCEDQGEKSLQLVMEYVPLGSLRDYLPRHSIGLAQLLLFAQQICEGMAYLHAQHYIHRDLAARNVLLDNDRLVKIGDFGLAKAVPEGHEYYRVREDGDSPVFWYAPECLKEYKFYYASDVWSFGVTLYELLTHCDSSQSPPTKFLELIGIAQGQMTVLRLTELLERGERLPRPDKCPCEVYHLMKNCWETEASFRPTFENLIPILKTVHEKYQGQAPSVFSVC
T1 sequence (Q9Y2H1 whole entry): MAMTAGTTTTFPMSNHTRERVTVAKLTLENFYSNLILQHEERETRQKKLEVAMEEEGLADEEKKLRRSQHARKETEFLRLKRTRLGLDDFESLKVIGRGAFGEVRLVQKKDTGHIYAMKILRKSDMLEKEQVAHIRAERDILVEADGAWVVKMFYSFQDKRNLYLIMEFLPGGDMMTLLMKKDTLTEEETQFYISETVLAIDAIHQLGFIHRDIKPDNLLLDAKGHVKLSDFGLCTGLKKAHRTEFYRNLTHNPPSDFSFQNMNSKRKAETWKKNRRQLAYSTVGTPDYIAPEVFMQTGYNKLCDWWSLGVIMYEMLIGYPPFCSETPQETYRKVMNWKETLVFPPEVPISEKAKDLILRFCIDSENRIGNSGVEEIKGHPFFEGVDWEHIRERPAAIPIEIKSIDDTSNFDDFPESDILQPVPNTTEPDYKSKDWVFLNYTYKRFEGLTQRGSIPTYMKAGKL
CDKL1, sequence (Q00532 whole entry): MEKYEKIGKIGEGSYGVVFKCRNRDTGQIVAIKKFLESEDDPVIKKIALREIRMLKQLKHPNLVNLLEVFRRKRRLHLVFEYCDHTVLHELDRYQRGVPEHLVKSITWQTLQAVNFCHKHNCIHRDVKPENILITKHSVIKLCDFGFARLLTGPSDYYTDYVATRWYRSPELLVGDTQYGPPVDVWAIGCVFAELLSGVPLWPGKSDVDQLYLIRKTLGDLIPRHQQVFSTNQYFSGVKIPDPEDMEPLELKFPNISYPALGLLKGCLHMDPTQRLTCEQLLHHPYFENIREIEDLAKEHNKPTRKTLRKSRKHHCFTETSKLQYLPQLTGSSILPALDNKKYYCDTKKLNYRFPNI
CDK8, sequence (P49336 whole entry): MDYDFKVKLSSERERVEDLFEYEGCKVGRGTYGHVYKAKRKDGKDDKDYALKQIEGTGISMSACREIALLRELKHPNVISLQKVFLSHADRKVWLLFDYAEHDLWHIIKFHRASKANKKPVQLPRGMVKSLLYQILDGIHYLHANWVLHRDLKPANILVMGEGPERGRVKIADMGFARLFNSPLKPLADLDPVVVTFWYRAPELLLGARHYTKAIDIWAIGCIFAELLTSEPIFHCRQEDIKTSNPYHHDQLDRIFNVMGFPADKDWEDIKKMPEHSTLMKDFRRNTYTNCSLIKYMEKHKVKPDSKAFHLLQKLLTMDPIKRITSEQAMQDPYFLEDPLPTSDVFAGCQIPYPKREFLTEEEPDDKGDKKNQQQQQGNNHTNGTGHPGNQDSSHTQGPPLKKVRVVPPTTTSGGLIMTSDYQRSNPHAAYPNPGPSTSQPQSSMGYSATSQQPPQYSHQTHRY
T2 sequence (Q15208 whole entry): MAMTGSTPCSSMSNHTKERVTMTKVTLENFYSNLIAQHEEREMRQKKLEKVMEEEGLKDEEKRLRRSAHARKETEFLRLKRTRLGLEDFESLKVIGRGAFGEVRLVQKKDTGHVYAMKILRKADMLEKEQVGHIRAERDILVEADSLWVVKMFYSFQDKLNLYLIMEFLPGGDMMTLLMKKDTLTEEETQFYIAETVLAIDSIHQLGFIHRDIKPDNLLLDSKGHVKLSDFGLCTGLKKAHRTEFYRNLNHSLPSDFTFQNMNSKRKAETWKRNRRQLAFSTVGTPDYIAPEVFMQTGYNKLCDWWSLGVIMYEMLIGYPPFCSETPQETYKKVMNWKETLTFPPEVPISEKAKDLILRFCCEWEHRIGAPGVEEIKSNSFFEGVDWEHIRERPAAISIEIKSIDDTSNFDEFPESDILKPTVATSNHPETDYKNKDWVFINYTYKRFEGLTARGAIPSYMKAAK
CLK3, sequence (P49761 whole entry): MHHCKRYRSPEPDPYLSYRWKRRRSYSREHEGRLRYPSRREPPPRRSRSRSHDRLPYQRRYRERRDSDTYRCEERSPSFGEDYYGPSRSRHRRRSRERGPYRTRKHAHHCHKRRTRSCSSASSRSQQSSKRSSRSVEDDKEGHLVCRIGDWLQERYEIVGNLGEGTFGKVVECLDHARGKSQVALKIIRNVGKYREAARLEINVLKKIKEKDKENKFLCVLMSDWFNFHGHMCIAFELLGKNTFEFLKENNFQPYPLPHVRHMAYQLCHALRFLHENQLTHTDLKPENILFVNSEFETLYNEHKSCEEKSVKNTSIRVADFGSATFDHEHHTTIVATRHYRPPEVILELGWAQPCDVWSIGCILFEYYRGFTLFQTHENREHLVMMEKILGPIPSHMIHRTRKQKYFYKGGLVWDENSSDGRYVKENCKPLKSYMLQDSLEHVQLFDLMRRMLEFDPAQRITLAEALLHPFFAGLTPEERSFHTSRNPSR
PKNB(M.tuberculosis), sequence (P9WI81 whole entry): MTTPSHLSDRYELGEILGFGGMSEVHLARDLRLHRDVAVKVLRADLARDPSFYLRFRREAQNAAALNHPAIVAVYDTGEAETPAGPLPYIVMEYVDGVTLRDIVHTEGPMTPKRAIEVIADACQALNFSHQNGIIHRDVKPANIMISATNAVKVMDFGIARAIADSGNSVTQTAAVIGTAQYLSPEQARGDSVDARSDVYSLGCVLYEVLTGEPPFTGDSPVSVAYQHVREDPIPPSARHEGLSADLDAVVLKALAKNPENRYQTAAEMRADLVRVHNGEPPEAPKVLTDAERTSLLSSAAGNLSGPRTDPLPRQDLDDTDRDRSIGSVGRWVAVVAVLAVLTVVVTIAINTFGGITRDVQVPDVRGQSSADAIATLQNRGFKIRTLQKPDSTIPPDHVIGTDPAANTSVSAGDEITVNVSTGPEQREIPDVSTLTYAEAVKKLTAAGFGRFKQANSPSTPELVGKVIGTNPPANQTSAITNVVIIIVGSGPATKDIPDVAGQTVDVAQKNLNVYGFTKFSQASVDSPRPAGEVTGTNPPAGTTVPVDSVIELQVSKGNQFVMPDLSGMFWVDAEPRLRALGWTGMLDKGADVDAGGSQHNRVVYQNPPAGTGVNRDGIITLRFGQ
STK16, sequence (O75716 whole entry): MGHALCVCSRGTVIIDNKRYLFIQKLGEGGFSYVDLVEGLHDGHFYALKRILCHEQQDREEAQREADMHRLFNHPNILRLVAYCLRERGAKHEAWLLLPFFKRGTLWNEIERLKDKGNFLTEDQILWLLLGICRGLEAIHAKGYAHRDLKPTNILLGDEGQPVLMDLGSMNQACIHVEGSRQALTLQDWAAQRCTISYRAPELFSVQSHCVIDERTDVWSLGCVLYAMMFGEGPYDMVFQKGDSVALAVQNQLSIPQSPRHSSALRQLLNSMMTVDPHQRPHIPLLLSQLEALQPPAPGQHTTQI
CSNK1A1L, sequence (Q8N752 whole entry): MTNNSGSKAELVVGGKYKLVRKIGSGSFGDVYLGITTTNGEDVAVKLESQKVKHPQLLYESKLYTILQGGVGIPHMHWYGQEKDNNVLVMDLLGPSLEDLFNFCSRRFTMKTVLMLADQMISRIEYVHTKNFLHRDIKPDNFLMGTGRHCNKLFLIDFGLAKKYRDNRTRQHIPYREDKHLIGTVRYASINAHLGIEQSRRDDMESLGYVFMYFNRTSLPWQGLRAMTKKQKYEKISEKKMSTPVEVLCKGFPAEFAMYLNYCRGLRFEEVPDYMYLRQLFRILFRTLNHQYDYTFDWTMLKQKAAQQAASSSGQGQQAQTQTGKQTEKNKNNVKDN
CDK4, sequence (P11802 whole entry): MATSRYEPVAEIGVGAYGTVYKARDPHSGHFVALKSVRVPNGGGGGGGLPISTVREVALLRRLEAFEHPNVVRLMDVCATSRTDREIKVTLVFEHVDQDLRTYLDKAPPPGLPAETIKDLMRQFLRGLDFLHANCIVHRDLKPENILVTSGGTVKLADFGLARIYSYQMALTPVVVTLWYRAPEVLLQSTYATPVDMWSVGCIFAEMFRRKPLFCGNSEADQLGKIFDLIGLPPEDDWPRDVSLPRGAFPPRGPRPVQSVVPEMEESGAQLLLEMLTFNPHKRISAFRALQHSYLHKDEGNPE

Consider `c1ccc2c(c1)Sc1ccccc1N2CCN1CCOCC1` [J54], for which the remaining binding is 67% on STK36; 100% at NDR2; 87% on PKNB(M.tuberculosis); 99% at PIK3CG; 100% on CSNK1A1L; 100% at CAMK1G. Further, the remaining binding came to 100% on MAP4K2; 100% on NDR1; 100% on CDK4; 99% on STK16; 81% on CDK11; 100% on TAOK1. In addition, the remaining binding at CDK8 is 100%; at CLK3 it was 92%; in [1], 100%; on NEK1, 95%; on MLK3, 100%; on WNK4 it was 91%. The remaining binding on CDKL1 was 79%.
